Type in all cases: cell-based, human
Test [1] relates to NKX2-5+ CD31+ endocardial-like cells. The test is described as follows: 8-day culture of sorted day 9 NKX2-5+ CD31+ endocardial-like or control endothelial cells with VEGFA and BMP. The method, then: (§1) For culture in the absence of cardiomyocytes, the endocardial or control endothelial cells (HES3-NKX2-5eGFP/w line) isolated at day 9 of differentiation were plated in a 96-well flat bottom microplate (Falcon) coated with Matrigel (25% v/v, Corning) at a density 2.5×10e4 cells per well in StemPro-34 supplemented with penicillin/streptomycin (1%, ThermoFisher), L-glutamine (2 mM, ThermoFisher), ascorbic acid (50 μg/ml, Sigma), monothioglycerol (50 μg/ml, Sigma), rhVEGFA (100 ng/ml, R&D) with or without rhBMP10 (10 ng/ml) or rhBMP4 (10 ng/ml). For co-culture of the two cell types, 5×10e4 hPSC-derived SIRPA+ cardiomyocytes (day 9) were mixed together with either 2.5×10e4 HES3-NKX2-5eGFP/w- or 5×10e4 HES2:RFP-derived endocardial or endothelial cells and cultured for 8 days in 96-well flat bottom microplates (Falcon) coated with Matrigel (25% v/v, Corning) in StemPro-34 supplemented with penicillin/streptomycin (1%, ThermoFisher), L-glutamine (2 mM, ThermoFisher), ascorbic acid (50 μg/ml, Sigma), monothioglycerol (50 μg/ml, Sigma) and rhVEGFA (100 ng/ml, R&D). For inhibition of the NRG-ERBB pathway lapatinib (10 μM, LC labs) was added to the media. Control cardiomyocytes were cultured as aggregates as described above in the same media with or without NRG1 (50 ng/ml). The cultures were incubated in a normoxic environment (5% CO2) and the media was changed every 2 days.
To further investigate differences between these pathway agonists, BMP10-induced NKX2-5+ CD31+ cells were cultured in the presence of different concentrations of either BMP4 or BMP10 for 8 days. VEGFA was added to maintain the endothelial phenotype of the cells during this culture period.

Test [2] has as its system NKX2-5+ CD31+ cells. The test is described as follows: Generation of NKX2-5+ CD31+ cells from hPSC-derived cardiogenic mesoderm (flow cytometry). Particulars: BMP alone (10 ng/ml) in the absence of bFGF; day 9. In general terms: In flow cytometry, cells or beads pass a laser one at a time.
Test [3] has as its system NKX2-5+ CD31+ cells. The test is described as above. The method, then:
To generate endocardial/endothelial cells, hPSCs were differentiated to cardiogenic mesoderm using the protocol described above. At day 3, the EBs were dissociated with TrypLE for 3 min at 37° C. and the cells plated in 96-well flat bottom microplates (Falcon) coated with Matrigel (25% v/v, Corning) at a density of 10e5 cells per well. The monolayers were cultured in StemPro-34 supplemented with penicillin/streptomycin (1%, ThermoFisher), L-glutamine (2 mM, ThermoFisher), ascorbic acid (50 μg/ml, Sigma), monothioglycerol (50 μg/ml, Sigma), transferrin (150 μg/ml, ROCHE) and rhbFGF (50 ng/ml, R&D). For endocardial induction, rhBMP10 (10 ng/ml) was added to the media from day 5 to day 9. For generation of control endothelial cells, VEGFA (100 ng/mL, R&D) was added to the differentiation media from day 3 to day 9. The cultures were incubated in a low oxygen environment (5% CO2, 5%O2, 90% N2) and the media was changed every 2 days. At day 9, HES3-NKX2-5eGFP/w-derived endocardial/endothelial cells were analyzed and isolated based on the expression of NKX2-5:GFP and CD31. The endocardial cells generated from the non-transgenic hPSC lines were analyzed and isolated as CD31+ populations. For dissociation, the monolayers were incubated in Collagenase type 2 (1 mg/ml, Worthington) in HANKs buffer at 37° C. for one hour.
Day 3 EBs were dissociated with TrypLE for 3 min at 37° C. Day 9-23 EBs or mixed populations of cardiomyocytes and endocardial/endothelial cells were dissociated by incubation in Collagenase type 2 (1 mg/ml, Worthington) in HANKS buffer at 37° C. for one hour followed by TrypLE treatment (5 min at 37° C.). The following antibodies were used for staining: anti-SIRPA-PeCy7 (Biolegend, 1:1000), anti-CD31-PE (BD Pharmingen, 1:100), anti-CD31-FITC (BD Pharmingen, 1:100), anti-CD31-AF647 (BD Pharmingen, 1:100), anti-CD90-APC (BD Pharmingen, 1:1000), anti-PDGFRB-BV421 (BD Pharmingen, 1:100), anti-CD105-APC (eBioscience, 1:200), anti-CD56-APC (BD Pharmingen, 1:100), anti-PDGFRA-PE (BD Pharmingen, […]), anti-CD36-APC (Biolegend, 1:100), anti-LDLR-BV421 (Biolegend, 1:100), anti-cardiac isoform of CTNT (ThermoFisher Scientific, 1:2000), or anti-myosin light chain 2 (Abcam, 1:1000), anti-ANP (Abcam, 1:500). For unconjugated primary antibodies, the following secondary antibodies were used for detection: goat anti-mouse IgG-APC (BD Pharmigen, 1:250), or donkey anti-rabbit IgG-AF488 (ThermoFisher Scientific, 1:1000). Detailed antibody information is described in the Key Resources Table. For cell-surface marker analyses, cells were stained for 30 min at 4° C. in FACS buffer consisting of PBS with 5% fetal calf serum (FCS) (Wisent) and 0.02% sodium azide. For intracellular staining, cells were fixed for 15 min at 4° C. with 4% PFA in PBS followed by permeabilization using 90% methanol for 20 min at 4° C. Cells were washed with PBS containing 0.5% BSA (Sigma) and stained with unconjugated primary antibodies in FACS buffer overnight at 4° C. Stained cells were washed with PBS with 0.5% BSA and stained with secondary antibodies in FACS buffer for 1 h at 4° C. Stained cells were analyzed using an LSR II Flow cytometer (BD). For cell sorting, cells were stained, washed and kept in IMDM with 0.2% KnockOut™ serum replacement and sorted using either Influx (BD), FACSAriaII (BD), MoFlo-XDP (BD) of FACSAria Fusion (BD) cells sorter at the Sickids/UHN flow cytometry facility. Data were analyzed using FlowJo software (Tree Star).
Initial experiments were set up to identify the signaling pathways that would promote the generation of a NKX2-5+ CD31+ cell that we propose represents the earliest stage of human endocardial development. The transgenic HES3-NKX2-5eGFP/w reporter line (Elliott et al., 2011, Nat. Methods, 8(12):1037-40) was used to allow for the identification of NKX2-5+ cells by flow cytometry. […]

Test [4] relates to NKX2-5+ CD31+ endocardial-like cells and SIRPA+ cardiomyocytes. The test is described as follows: Co-culture of NKX2-5+ CD31+ endocardial-like cells (HES3-NKX2-5eGFP/w) with SIRPA+ cardiomyocytes. As for the experimental part: as §1, with “days. […]” for “days.”
Test [5] relates to RFP+ CD31+ endocardial-like cells and SIRPA+ cardiomyocytes. Briefly: Co-culture of HES2-RFP CD31+ endocardial-like cells with HES2-GFP SIRPA+ cardiomyocytes. Particulars: lapatinib 10 μM, 8 days co-culture, VEGFA 100 ng/ml. The method, then: as §1, with “days. […]” for “days.”

On to BMP10: Recombinant human BMP10 (R&D), for which the “NRG1 levels in cultured NKX2-5+ CD31+ cells” value in test [1] (8 days, BMP10 10 ng/ml versus BMP4 10 ng/ml, VEGFA 100 ng/ml) is recorded as “sustained higher levels”. Further, in test [1] (8 days, VEGFA 100 ng/ml, all concentrations of agonist tested), the “maintaining the NKX2-5+ CD31+ cell phenotype” value is “more effective than BMP4”. For the same molecule, the “NRG1 expression in control endothelial population” value in test [1] (BMP10 added during 8-day culture) is “did not lead to the upregulation”. Further, in the test on NKX2-5+ CD31+ cells [2], the “populations containing CD31+ cells” value is listed as “None”. Besides, the “proportion of NKX2-5+ CD31+ cells generated” value in the test with NKX2-5+ CD31+ cells [3] (BMP 10 ng/ml paired with exogenous bFGF, day 9) is reported as “significantly increased”. Moreover, the “NRG1 expression in induced NKX2-5+ CD31+ population (RT-qPCR)” value with NKX2-5+ CD31+ cells [3] (BMP10-induced versus BMP4-induced cells) is listed as “higher levels”. Besides, the “fraction of CD105+ cells” value in the test on NKX2-5+ CD31+ cells [3] (BMP10-induced versus BMP4-induced or control endothelial populations) was “much larger fraction”. Also, in the test on NKX2-5+ CD31+ cells [3] (BMP10-induced versus BMP4-treated populations), the “total number of NKX2-5+ CD31+ cells at days 8 and 9” value is reported as “significantly higher”. Further, in the test with NKX2-5+ CD31+ cells [3] (BMP agonist with bFGF, populations persisted to day 12), the “day of emergence of NKX2-5+ CD31+ cells” value stood at 8 days. Further, the “concentration inducing the highest frequency and number of NKX2-5+ CD31+ cells” value with NKX2-5+ CD31+ cells [3] (days 5-9, in presence of bFGF 50 ng/ml) amounted to 10 ng/mL.
For `Cc1c[nH]c(-c2cnc(NCCNc3ccc(C#N)cn3)nc2-c2ccc(Cl)cc2Cl)n1` [CHIR99021, reference compound], the “total number of NKX2-5+ CD31+ cells produced” value with NKX2-5+ CD31+ cells [3] (1 μM CHIR99021 for 2, 4 or 6 days from day 3, day 9) is “did not impact”. The “frequency of NKX2-5+ CD31+ cells” value in the test with NKX2-5+ CD31+ cells [3] (1 μM CHIR99021 for 6 days from day 3, day 9) is on record as “decrease”.
For the molecule `Cc1ccc2nc(NC(=O)CSc3nc4c(c(=O)n3-c3ccccc3)SCC4)sc2c1` [IWP2, reference compound], in the test with NKX2-5+ CD31+ cells [3] (IWP2 added for 4 or 6 days from day 3, day 9), the “total number of NKX2-5+ CD31+ cells” value is “reduced”. Further, the “frequency of NKX2-5+ CD31+ cells generated” value with NKX2-5+ CD31+ cells [3] (Wnt inhibition, 2 μM IWP2 for 2, 4 or 6 days from day 3, day 9 read-out) is on record as “significant reduction”.
Turning to `CS(=O)(=O)CCNCc1ccc(-c2ccc3ncnc(Nc4ccc(OCc5cccc(F)c5)c(Cl)c4)c3c2)o1` [lapatinib], in test [4] (lapatinib 10 μM, 8 days co-culture, VEGFA 100 ng/ml), the “induction of the trabecular fate by NKX2-5+ CD31+ endocardial-like cells” value is “inhibited”. Moreover, the “induction of trabecular myocardium markers by RFP+ CD31+ endocardial-like cells” value in test [5] is given as “inhibited”.
For the molecule `c1ccc2c(-c3cnn4cc(-c5ccc(N6CCNCC6)cc5)cnc34)ccnc2c1` [LDN193189], the “NKX2-5 expression in endocardial cells” value in test [4] (cells isolated from co-cultures and cells treated with BMP10, 8 days, different concentrations of LDN193189) is on record as “partial downregulation”.

Values taken from US20230265391A1, “METHODS AND COMPOSITIONS FOR MAKING AND USING ENDOCARDIAL CELLS” (University Health Network, priority 2020, published 2023).
